Measurements from PMC4880976, “Pharmacologic rationale for the NK1R antagonist, aprepitant as adjunctive therapy in HIV” (Journal of Translational Medicine, 2016).
pIC50, pKi: −log10 of the molar value. Where no end group is shown, it is not given here.

Legend:
[1] = Table 1, literature values, no reference given; cited from earlier work
[2] = cited from earlier work
5-HT2C receptor = test system: 5-HT2C receptor; set-up: method as in PMID 23702798, PMID 25113527; conditions: cited from earlier work
HIV = conditions: Table 1, reference not given; cited from earlier work
serotonin reuptake = test system: serotonin reuptake; set-up: method as in PMID 23702798, PMID 25113527; conditions: at 10 μM; cited from earlier work
GABAA receptor = test system: GABAA receptor; set-up: method as in PMID 23702798, PMID 25113527; conditions: cited from earlier work
[3] = test system: vesicular monoamine transporter 2 (VMAT2); set-up: method as in PMID 23702798, PMID 25113527; conditions: at 10 μM; cited from earlier work
dopamine reuptake = test system: dopamine reuptake; set-up: method as in PMID 23702798, PMID 25113527; conditions: at 10 μM; cited from earlier work
5-HT2A receptor = target: 5-HT2A receptor; set-up: method as in PMID 23702798, PMID 25113527; conditions: partial agonist; cited from earlier work
[4] = test system: ATP-dependent K+ currents of mouse pancreatic B-cells; conditions: in the absence of albumin; Table 1, reference not given; read-out: concentration blocking currents half maximally; cited from earlier work
human PBMC = assay: SP dependent cytokine and chemokine production by PBMC, multiplex assay; format: cell-based; conditions: SP 10 µM, 24 h
Protocol: (§1) For cytokine and PD-1 assessment experiments freshly isolated peripheral blood mononuclear cell (PBMC) purchased from the Human Immunology Core Facility of The University of Pennsylvania School of Medicine (Philadelphia, PA) were cultured in RPMI medium supplemented with 10 % FBS overnight. Some cultures were treated with SP (10 µM) aprepitant (10 µM) or DMSO (0.001 %, vehicle for aprepitant). Cytokine concentrations were measured in supernatants using multiplex assay 24 h after SP/aprepitant treatment (see below). For PD-1 expression SP and aprepitant were added at day 0 and PD-1 expression was monitored daily for up to 8 days using flow cytometry.
Concentrations of pro-inflammatory cytokines and chemokines in supernatants of human PBMC were measured using human Cytokine/Chemokine Magnetic Bead Panel—Premixed 30 Plex, HCYTMAG-60K-PX30 (Millipore, Billerica, MA, USA) as recommended by the manufacturers.
Fig. 5 SP dependent up regulation of cytokine and chemokine production by human PBMC* is inhibited by aprepitant. *Freshly isolated PBMC from normal donors were incubated for 24 h with SP and/or Aprepitant (10 µM each) as indicated. Control cultures were either left untreated of incubated with DMSO (vehicle for aprepitant). Pro-inflammatory markers were measured in supernatants using MILLIPORE Human Cytokine/Chemokine Magnetic Bead Panel.

[5] = test system: PD-1 expression on CD3+CD4+ cells; assay: PD-1 expression on CD4+ T-cells in PBMC, flow cytometry; format: cell-based, human
Protocol: as §1
Fig. 6 Aprepitant blocks SP induced PD-1 expression on CD4+ T-cells. PBMC were treated for 7 days with SP and aprepitant as indicated. PD-1 expression was measured by flow cytometry on CD3+CD4+ cells and expressed as percentage of PD-1 positive cells. a Results from representative experiment are shown. First two columns show gaiting strategy. […] Median (spread): control 14.7 (11.1), SP treated 38.4 (60.6), SP + aprepitant treated 7.8 (6.0) TEXT PRINTED IN THE PICTURE: (a) SP: PD1+ 67.1 | (a) SP + aprepitant: PD1+ 9.53 DOUBTS OF THE COPYIST ABOUT THIS PICTURE: SP + aprepitant, PD1+ 9.53: the sign after PD1 looks like '+' or '−' because it touches the gate line / SP + aprepitant, 9.53: small print, so the digits 9, 5 and 3 are not fully certain / The rows 'no staining' (PD1+ 0.079) and 'control' (PD1+ 11.4) were left out because they are not substances

[6] = test system: CD163 cleavage in human monocytes; assay: sCD163 release from human monocytes, ELISA; format: cell-based; conditions: SP, time- and dose-dependent, p < 0.001
Protocol: sCD163 was measured by ELISA (Trillium Diagnostics, Brewer, Maine, USA) according to manufacturer’s recommendations.
Fig. 7 SP induces cleavage of CD163 in monocytes. sCD163 was measured by ELISA in the supernatant of freshly isolated human monocytes treated with SP and aprepitant as indicated. a Time course of cells treated with varying doses of SP as indicated. *p < 0.001 control versus 5 and 10 μM of SP. b Cells were pre-incubated with aprepitant (10 μM) for 30 min and then treated with SP (5 μM) for 60 min. *p < 0.001 SP versus control, p = 0.004 SP versus SP + aprepitant. Results are presented as mean ± SD from three independent experiments

## CCC[C@@H]1C[C@@H](C(=O)N[C@@H]([C@H]2O[C@H](SC)[C@H](O)[C@@H](O)[C@H]2O)[C@H](C)Cl)N(C)C1 [Clindamycin]
[1]
  PB %: Clindamycin (95 %)

## CN1C(=O)CN=C(c2ccccc2)c2cc(Cl)ccc21 [Diazepam]
[2]; Table 1 footnote, no reference given
  target concentrations: < 1 µg/mL
[1]
  PB %: Diazepam+ (98.5 %)

## O=C1Nc2ccc(Cl)cc2[C@@](C#CC2CC2)(C(F)(F)F)O1 [Efavirenz]
5-HT2C receptor
  action at 5-HT2C receptor: ligand
HIV
  Plasma concentrations that appear to suppress HIV replication: Plasma concentrations above 2 mg/L appear to suppress HIV replication
Serotonin reuptake
  serotonin reuptake inhibition: 50%
GABAA receptor
  action at GABAA receptor: positive allosteric modulator
[3]
  VMAT2 inhibition: 60%
Dopamine reuptake
  dopamine reuptake inhibition: 75%
5-HT2A receptor
  pKi: 5.66

## NS(=O)(=O)c1cc(C(=O)O)c(NCc2ccco2)cc1Cl [Furosemide]
[1]
  PB %: Furosemide (91–99 %)

## O=C1NC(=O)C(c2ccccc2)(c2ccccc2)N1 [Phenytoin]
[2]; in vivo
  clinically effective serum trough concentration: The clinically effective serum trough concentration is usually 40 to 80 µmol/L.

## CCCCNC(=O)NS(=O)(=O)c1ccc(C)cc1 [Tolbutamide]
[4]
  pIC50: 5.39

## CCCC(CCC)C(=O)O [Valproic Acid]
[2]; in vivo
  therapeutic range (total): The therapeutic range for valproic acid (total) is 50–125 µg/mL

## substance P (RPKPQQFFGLM; ends and bridges not checked; UniProt P20366 58-68, looked up) [SP, substance P, ligand of its preferring receptor NK1R]
Human PBMC
  production of G-CSF, IL-6, IL-8, TNFα and MIP-1α: upregulated
  production of MCP-1: increased production
[5]; SP treated, 7 days, five experiments, control 14.7 (11.1)
  percentage of PD-1 positive CD4 cells, median (spread): 38.4 (60.6) %
[5]; incubation of PBMC with SP, 6–8 days, p = 0.03
  PD-1 expression by CD4 T-cells: increased PD-1 expression
[6]
  release of sCD163: fast release
